Reference: patent US10875834B2, “Prodrug and protected forms of 5-hydroxymethylfurfuranal (5-HMF) and its derivatives” (VIRGINIA COMMONWEALTH UNIVERSITY, priority 2016, dated 2020)
Several values for one entry are separate records, joined by “and”; a condition that tells them apart may be missing. Equal values may be shown once. Entries after “also recorded” stand apart in the source; their conditions may differ. Read-outs that look alike come from different tables or passages of the source.

Tests used:
sickle Hb (Hb S) = target: T1, sickle Hb (Hb S) (Homo sapiens, UniProt P69905); assay: Hb adduct formation study (Hb S modification) with SS cells, cation-exchange HPLC; assay type: cell-based; details: for Modified Hb (%): 2 mM test compound, SS cells suspensions (20% hematocrit), mean ± SD, three experiments; for Hb modification relative to 5-HMF: 1, 2 and 5 mM
T1 construct: from tissue; host or cells: blood (red cells) of a subject with homozygous sickle cell disease; hemolysate analysed
From the text: (§1) The twelve compounds, VZHE004, VZHE006, VZHE007, VZHE005, VZHE011, VZHE013, VZHE014, VZHE015, VZHE016, 5-PMFC, 5-CMFC, 5-NMFC, and the parent compound (positive control) 5-HMF were investigated for their abilities to prevent hypoxia-induced RBC sickling (RBC morphology study), increase sickle Hb oxygen affinity (oxygen equilibrium curve; OEC study), and modify sickle Hb (adduct formation study) as previously published (Abdulmalik et al., Br. J Haematol., 2005, 128, 552; Safo et al, J. Med. Chem, 2004, 47, 4665). Briefly, blood suspensions from a subject with homozygous SCD (hematocrit: 20%) were incubated under air in the absence or presence of 1, 2 and 5 mM concentration of test compounds at 37° C. for 1 hr to ensure that binding had attained equilibrium. Following, the suspensions were incubated under hypoxic condition (4% oxygen/96% nitrogen) at 37° C. for 2 hr. Aliquot samples were fixed with 2% glutaraldehyde solution without exposure to air, and then subjected to microscopic morphological analysis. The residual samples were washed in phosphate-buffered saline, and hemolyzed in hypotonic lysis buffer for subsequent analyses.
(§2) For the OEC study, approximately 100 μl aliquot samples from clarified lysate obtained from the antisickling study were added to 4 ml of 0.1M potassium phosphate buffer, pH 7.0, in a cuvette and subjected to hemoximetry analysis using Hemox™ Analyzer (TCS Scientific Corp.) to assess P50 shifts. Finally, for the Hb adduct formation study, clarified lysates, also from the above antisickling study, were subjected to cation-exchange HPLC (Hitachi D-7000 Series, Hitachi Instruments, Inc., San Jose, Calif.), using a weak cation-exchange column (Poly CAT A: 30 mm×4.6 mm, Poly LC, Inc., Columbia, Md.).

[1] = target: T2, sickle Hb oxygen affinity (Homo sapiens, UniProt P69905); assay: Oxygen equilibrium curve (OEC) study, P50 shift of hemolysate from SS cells; assay type: cell-based; details: for AP50 (%): 2 mM test compound, hemolysate of SS cells, mean ± SD, three experiments; for P50 shift relative to 5-HMF: 1, 2 and 5 mM
T2 construct: from tissue; host or cells: blood (red cells) of a subject with homozygous sickle cell disease; hemolysate analysed
From the text: as §1, §2

[2] = tested on: homozygous sickle red blood cells (SS cells); assay: Antisickling (RBC morphology) study under hypoxia; assay type: cell-based, human
From the text: as §1

Hb = Hb (Homo sapiens, UniProt P69905); assay: Incubation of Hb with VZHE004 for three days, UPLC-MS analysis; assay type: in vitro ADME; details: incubated with Hb for three days
From the text: The overall tetrameric structure is indistinguishable (rmsd ˜0.4 Å) from 1BBB or the R2 structure in complex with 5-HMF (PDB code 1QXE). Like 5-HMF we also observed a pair of VZHE004 molecules covalently bound to the N-terminal αVal1 amines (Schiff-base interaction) in a symmetry-related fashion at the α-cleft (FIG. 7). The electron density of VZHE004 was relatively weak especially at the methyl acetate position. As such, the compound was refined as 5-HMF at the α1Val1 site, while the full VZHE004 was modelled at the α2Val1 binding site but with the methyl acetate refined in two alternate conformations (FIG. 7a). However, to make sure that the disorder is not due to partial hydrolytic cleavage of the ester, Hb and VZHE004 were incubated for three days.

Hb A = target: T3, Hb A (Homo sapiens, UniProt P69905); assay: Time-dependent adduct formation study in normal whole blood; assay type: in vitro ADME; details: 2 mM, up to 24 hr
T3 construct: time-dependent studies on Hb adduct formation using normal whole blood; from tissue; host or cells: normal human whole blood (30% hct)
Protocol: The compounds, VZHE004, VZHE006, VZHE007, VZHE005, VZHE011, VZHE013, VZHE014, VZHE015, VZHE016, 5-PMFC, 5-NMFC, and the control 5-HMF were used to conduct time-dependent studies on Hb adduct formation using normal whole blood. The study was performed in a 96-well deepwell (Thermo Scientific) plate, where each compound at 2 mM concentration was added to 600 μL of whole blood (30% hct) and incubated at 37° C. for 24 hr with shaking (at 140 rpm). At 0.5 hr, 1 hr, 2 hr, 4 hr, 6 hr, 8 hr and 24 hr time intervals, 75 μL aliquot of blood was removed from each well using a multichannel pipette and added to respective tubes containing 75 μL of Na cyanoborohydride and borohydride mix (1:1 v/v 50 mM stock) to terminate the Schiff-base reaction, fix the Schiff-base adducts and reduce the reduce free reactive aldehyde (Davies et al., Food Chem. Toxicol. 2009, 47, 1950). We have previously optimized these conditions. After mixing, the tubes were stored immediately at −80° C. until ready for analysis to determine Hb adduct formation using cation-exchange HPLC (Hitachi D-7000 Series, Hitachi Instruments, Inc., San Jose, Calif.).

[3] = both in-vitro and in-vivo; cited from earlier work
sickle cell disease = details: phase I/II human clinical studies; cited from earlier work
[4] = Homo sapiens, Erythrocyte, 2 mM test compound, SS cells 20% hematocrit, hypoxia 4% oxygen/96% nitrogen, mean ± SD, read-out: Inhibition of Sickling (%)
[5] = Homo sapiens, Erythrocyte, 5 mM, read-out: RBC sickling inhibition
[6] = Homo sapiens, Erythrocyte, 2 mM, read-out: RBC sickling inhibition
[7] = 2 mM test compound, SS cells 20% hematocrit, hypoxia 4% oxygen/96% nitrogen, mean ± SD

T2 sequence (P69905 2-142 limits assumed): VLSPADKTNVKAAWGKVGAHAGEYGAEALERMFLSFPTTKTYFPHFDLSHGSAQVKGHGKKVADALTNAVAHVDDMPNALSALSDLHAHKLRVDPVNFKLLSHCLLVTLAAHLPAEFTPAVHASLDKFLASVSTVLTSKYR
T1 sequence (P69905 2-142 limits assumed): as above
T3 sequence (P69905 2-142 limits assumed): as above
T3 sequence (P68871 2-147 partner limits assumed): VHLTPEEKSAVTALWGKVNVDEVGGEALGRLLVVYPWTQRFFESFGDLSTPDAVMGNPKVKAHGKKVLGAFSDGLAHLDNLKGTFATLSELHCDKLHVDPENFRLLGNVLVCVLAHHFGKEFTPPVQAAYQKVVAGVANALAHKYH
Chain of Hb (P69905 2-142 limits assumed): as the sequence (P69905 2-142 limits assumed) above
Chain of Hb (P68871 2-147 partner limits assumed): as the sequence (P68871 2-147 partner limits assumed) above

Structure (SMILES) | Modified Hb (%) (sickle Hb (Hb S)) | AP50 (%) [1] [%] | inhibition at 2000 µM [2, 4] [%] | inhibition at 5000 µM [2, 5] [%] | inhibition at 2000 µM [2, 6] [%] | P50 shift relative to 5-HMF [1] | antisickling effect ([2]; over 1, 2 and 5 mM) | other results
CC(=O)OCc1ccc(C=O)o1 [VZHE004, (5-formylfuran-2-yl)methyl acetate] | 43.5 ± 8.4 | 44.6 ± 11.9 | 26.3 ± 4.4 | 60 |  |  |  | RBC sickling inhibition ([2]; 5 mM): ~60%; stability of the ester against hydrolytic cleavage (UPLC-MS) (Hb): intact
CCOCc1ccc(C=O)o1 [VZHE011, 5-(Ethoxymethyl)-2-furan Carboxadehyde] | 40.4 ± 3.9 | 39.8 ± 0.8 | 58.8 ± 7 |  | 35 to 95 |  |  | antisickling effect ([2]; 2 mM): superior
CCCOCc1ccc(C=O)o1 [VZHE015, 5-(Propoxymethyl)-2-furan Carboxadehyde] | 39.7 ± 8.2 | 44.0 ± 9.7 | 62.9 ± 6.2 |  | 35 to 95 |  |  | antisickling effect ([2]; 2 mM): superior
O=Cc1ccc(COc2ccc(Cl)cc2)o1 [Compound 5-CMFC, 5-((4-chlorophenoxy)methyl)-2-furan carbaldehyde] | 26.7 ± 6.5 | 13.2 ± 5.2 | 2 ± 1.9 |  | < 10 | significantly less P50 shift than 5-HMF; also recorded: lower degrees of shift than 5-HMF | barely showed any antisickling activity; also recorded: poor antisickling effects | antisickling effect ([2]; 5 mM): barely showed any antisickling effect
CC(C)(C)OC(=O)OCc1ccc(C=O)o1 [VZHE006, tert-Butyl ((5-formylfuran-2-yl)methyl) carbonate] | 50.0 ± 3.0 | 44.8 ± 12.9 | 71.6 ± 0.1 | > 95 | 35 to 95 |  |  | 
O=Cc1ccc(COc2ccccc2)o1 [Compound 5-PMFC, 5-(phenoxymethyl)-2-furan carbaldehyde] | 60.53 ± 5.3 | 45.4 ± 14.6 | 94.7 ± 0.1 |  |  | better P50 sift than 5-HMF |  | Hb modification relative to 5-HMF (sickle Hb (Hb S)): superior Hb modification; RBC sickling inhibition ([2]; 2 mM): ~95%; antisickling effect ([2]; 2 mM): attained maximum effect; inhibition at 1000 µM ([2]; Homo sapiens, Erythrocyte, 1 mM, read-out: RBC sickling inhibition): ~17%; metabolic profile / decline of Hb adduct in whole blood (Hb A): exhibit some resistance to metabolism
O=Cc1ccc(COc2ccccc2[N+](=O)[O-])o1 [Compound 5-NMFC, 5-((2-nitrophenoxy)methyl)-2-furan carbaldehyde] | 40.5 ± 17.6 | 13.4 ± 5.7 | 10.3 ± 0.5 | < 10 | < 10 | significantly less P50 shift than 5-HMF; also recorded: lower degrees of shift than 5-HMF | barely showed any antisickling activity; also recorded: poor antisickling effects | Hb modification relative to 5-HMF (sickle Hb (Hb S)): superior Hb modification; antisickling effect ([2]; 5 mM): barely showed any antisickling effect; metabolic profile / decline of Hb adduct in whole blood (Hb A): exhibit some resistance to metabolism
COP(=O)(OC)OCc1ccc(C=O)o1 [VZHE014, (5-Formylfuran-2-yl)methyl Dimethyl Phosphate] | 19.7 ± 6.3 | 35.7 ± 8.1 |  |  |  |  | poor antisickling effects | Inhibition of Sickling (%) [2, 7]: 8.4 ± 5.9%; RBC sickling inhibition ([2]; 5 mM): 43% and ~40%
CC(C)OCc1ccc(C=O)o1 [VZHE016, 5-(isopropoxymethyl)-2-furan Carboxadehyde] | 36.4 ± 9.7 | 38.4 ± 10.4 |  |  |  |  |  | RBC sickling inhibition ([2]; 2 mM): ~16%; Inhibition of Sickling (%) [2, 7]: 22.5 ± 8.8%
O=Cc1ccc(COC(=O)c2ccccc2)o1 [VZHE007, (5-Formylfuran-2-yl)methyl Benzoate] | 44.5 ± 6.0 | 38.9 ± 11.9 | 10 ± 5.9 | ~83 |  |  | poor antisickling effects | 
CC(C)(C)OCc1ccc(C=O)o1 [VZHE013, 5-(tert-Butoxymethyl)furan-2-carbaldehyde] | 15.7 ± 4.3 | 24.0 ± 5.6 | 7.4 ± 6.9 |  |  | weaker | very little antisickling activity; also recorded: barely showed any antisickling activity; also recorded: poor antisickling effects | Hb modification relative to 5-HMF (sickle Hb (Hb S)): weaker adduct formation; % P50 shift ([1]; 1 mM): 16%; % P50 shift ([1]; 2 mM): 24%; % P50 shift ([1]; 5 mM): 46%; sickling inhibition (antisickling effect) ([2]; at all three concentrations (1, 2 and 5 mM)): less than 5%
O=Cc1ccc(CO)o1 [Compound 5-HMF, 5-hydroxymethyl-2-furfural, reference compound] | 32.8 ± 1.6 | 33.4 ± 0.9 | 25.7 ± 4.4 |  | 26 |  |  | RBC sickling inhibition ([2]; 2 mM): ~23% and ~26%; half-life in plasma [3]: 1 to 1.5 h; effective dose (sickle cell disease): 2-4 gm
